In ChEMBL document CHEMBL1157196, “Structure-based discovery of a novel non-peptidic small molecular inhibitor of caspase-3” (Bioorg Med Chem, 2008) one finds IC50 data, which are given here for 1 compound.

pIC50: −log10 of the molar value.

The pIC50 is the negative decadic logarithm of the IC50, by convention in mol/L.

The target of assay [1] is T1, Caspase-3 (Homo sapiens, UniProt P42574).
T1 sequence (P42574 whole entry): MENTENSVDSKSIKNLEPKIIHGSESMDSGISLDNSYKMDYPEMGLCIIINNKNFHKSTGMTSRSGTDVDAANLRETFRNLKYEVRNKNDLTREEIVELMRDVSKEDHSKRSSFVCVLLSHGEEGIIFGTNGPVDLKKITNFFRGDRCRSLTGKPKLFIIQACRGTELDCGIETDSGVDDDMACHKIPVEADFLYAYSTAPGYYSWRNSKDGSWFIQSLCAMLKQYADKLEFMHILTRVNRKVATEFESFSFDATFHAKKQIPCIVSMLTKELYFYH
Kind of assay: Inhibition of human recombinant caspase 3 preincubated for 10 mins.

Assay [2] has as its target T2, Caspase-7 (Homo sapiens, UniProt P55210).
T2 sequence (P55210 whole entry): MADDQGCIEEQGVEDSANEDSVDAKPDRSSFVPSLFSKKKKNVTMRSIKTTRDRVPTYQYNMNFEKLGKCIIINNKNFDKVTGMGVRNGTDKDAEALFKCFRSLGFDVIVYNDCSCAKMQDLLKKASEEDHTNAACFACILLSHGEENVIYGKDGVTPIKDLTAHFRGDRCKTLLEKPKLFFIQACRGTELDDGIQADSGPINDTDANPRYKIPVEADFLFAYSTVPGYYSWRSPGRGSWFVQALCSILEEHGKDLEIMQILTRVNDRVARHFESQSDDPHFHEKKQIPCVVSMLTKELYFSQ
Kind of assay: Inhibition of human recombinant caspase 7 preincubated for 10 mins.

The target of assay [3] is Caspase-8 (Homo sapiens, UniProt Q14790). Kind of assay: Inhibition of human recombinant caspase 8 preincubated for 10 mins.
Sequence of Caspase-8 (Q14790 217-374 limits assumed): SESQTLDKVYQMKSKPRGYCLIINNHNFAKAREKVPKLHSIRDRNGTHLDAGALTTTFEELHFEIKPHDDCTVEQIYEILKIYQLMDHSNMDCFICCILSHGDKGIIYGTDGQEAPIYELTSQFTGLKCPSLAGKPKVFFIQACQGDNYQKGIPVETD
Sequence of Caspase-8 (Q14790 385-479 limits assumed): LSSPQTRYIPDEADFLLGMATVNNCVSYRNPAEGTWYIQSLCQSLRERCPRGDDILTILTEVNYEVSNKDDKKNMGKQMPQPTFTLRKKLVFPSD
For assay [4], the target named is T3, Caspase-9 (Homo sapiens, UniProt P55211).
T3 sequence (P55211 whole entry): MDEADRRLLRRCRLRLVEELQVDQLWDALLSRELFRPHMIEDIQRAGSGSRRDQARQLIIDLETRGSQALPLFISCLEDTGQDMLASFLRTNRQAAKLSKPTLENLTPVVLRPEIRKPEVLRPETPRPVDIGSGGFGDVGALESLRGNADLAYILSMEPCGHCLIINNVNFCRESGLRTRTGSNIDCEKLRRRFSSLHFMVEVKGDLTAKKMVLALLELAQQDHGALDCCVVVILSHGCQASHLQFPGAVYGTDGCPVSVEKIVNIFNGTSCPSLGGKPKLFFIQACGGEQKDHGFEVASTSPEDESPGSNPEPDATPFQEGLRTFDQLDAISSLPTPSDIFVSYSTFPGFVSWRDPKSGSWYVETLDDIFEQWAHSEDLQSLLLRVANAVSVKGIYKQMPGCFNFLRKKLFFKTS
Kind of assay: Inhibition of human recombinant caspase 9 preincubated for 10 mins.

`CCOC(=O)COc1cc(C(=O)O)c(O)c2ccccc12`: the pIC50 in assay [1] was 4.87; in assay [2], 4.07; in assay [3], under 4.00; in assay [4], 4.03.
